Laboratory results: patent US12295396B2, “Antagonists of T2R54 and compositions and uses thereof” (Firmenich Incorporated, priority 2018, dated 2025)

Molecular target: T1, hT2R54 (Homo sapiens, UniProt P59534)
T1 construct: expressed in transfected cells; it overexpresses a promiscuous G protein
T1 sequence (P59534 1-338): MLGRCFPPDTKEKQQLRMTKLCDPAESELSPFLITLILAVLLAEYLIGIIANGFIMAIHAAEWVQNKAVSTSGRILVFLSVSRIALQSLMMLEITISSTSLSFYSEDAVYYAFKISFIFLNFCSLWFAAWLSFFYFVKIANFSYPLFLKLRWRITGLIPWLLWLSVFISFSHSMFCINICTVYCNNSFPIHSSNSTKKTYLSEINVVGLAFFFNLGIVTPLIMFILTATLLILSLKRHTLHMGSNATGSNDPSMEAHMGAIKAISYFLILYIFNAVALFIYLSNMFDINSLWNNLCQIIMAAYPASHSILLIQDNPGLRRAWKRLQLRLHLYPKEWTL
Test: Cell-based assay for measuring hT2R54 inhibition (FLIPR calcium, Fluo4AM, acetaminophen as bitter agonist)
Details: FIG. 1; cells expressing hT2R54, not control host cells
Method in brief: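 Cells stably co-expressing hT2R54 and a promiscuous G protein were loaded with Fluo4AM and given acetaminophen dose series, alone or with fixed concentrations of test compound. On FLIPR, baseline was recorded for 10 s and fluorescence for 3 min after addition. IC50 is the concentration halving the acetaminophen-alone response.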

SMILES | response of hT2R54-expressing cells to bitter tastant
CC(=O)Nc1ccc(O)cc1 [acetaminophen, reference compound] | measurable change in intracellular calcium

Same assay, conditions: Table 2; cells stably expressing hT2R54 and a promiscuous G protein; read-out: hT2R54 IC50

IC50 | SMILES
170 nM | CC(=O)c1cc2c(cc1NC(=O)CN1CCN(C(=O)COC(C)C)CC1)OCO2 [compound 20]
70 nM | CC(=O)c1cc2c(cc1NC(=O)CN1CCN(C(=O)c3ccncc3)CC1)OCCO2 [compound 327]
200 nM | COc1cc2c(cc1NC(=O)CN1CCN(C(=O)c3ncc[nH]3)CC1)OCO2 [compound 393]
9 nM | CC(=O)c1cc2c(cc1NC(=O)CN1CCN(C(=O)c3nc(C)c[nH]3)CC1)OCO2 [compound 308]
> 10000 nM | COc1cc2c(cc1NC(=O)CN1CCN(C(=O)c3cnon3)CC1)OCO2 [compound 387]
30 nM | CC(=O)c1cc2c(cc1NC(=O)CN1CCN(C(=O)c3sccc3C)CC1)OCO2 [compound 68]
299 nM | COC(=O)c1cc2c(cc1NC(=O)CN1CCN(C(=O)C3CCCO3)CC1)OCO2 (stereo not shown) [compound 350]
500 nM | CC(=O)c1cc2c(cc1NC(=O)CN1CCN(C(=O)c3cc4ccccc4o3)CC1)OCO2 [compound 80]
240 nM | CCCOC(=O)N1CCN(CC(=O)Nc2cc3c(cc2OC)OCO3)CC1 [compound 84]
23 nM | CC(=O)c1cc2c(cc1NC(=O)CN1CCN(C(=O)c3coc(C)n3)CC1)OCO2 [compound 297]
50 nM | CC(=O)c1cc2c(cc1NC(=O)CN1CCN(C(=O)c3ccn(C)n3)CC1)OCO2 [compound 71]
7600 nM | CCc1cc2c(cc1NC(=O)CN1CCN(C(=O)C3CCCO3)CC1)OCO2 (stereo not shown) [compound 414]
29 nM | CCCC(=O)N1CCN(CC(=O)Nc2cc3c(cc2C(C)=O)OCO3)CC1 [compound 9]
166 nM | COC(=O)c1cc2c(cc1NC(=O)CN1CCN(C(C)=O)CC1)OCO2 [compound 348]
> 10000 nM | COc1cc2c(cc1NC(=O)CN1CCN(C(=O)C3CCN(C)C3)CC1)OCO2 (stereo not shown) [compound 407]
30 nM | CC(=O)c1cc2c(cc1NC(=O)CN1CCN(C(=O)c3cn(C)nn3)CC1)OCO2 [compound 78]
200 nM | COc1cc2c(cc1NC(=O)CN1CCN(C(=O)c3ccccc3F)CC1)OCO2 [compound 90]
15 nM | CC(=O)c1cc2c(cc1NC(=O)CN1CCN(C(=O)c3ccc(C)s3)CC1)OCO2 [compound 67]
200 nM | CC(=O)c1cc2c(cc1NC(=O)CN1CCN(C(=O)c3c[nH]c(C)n3)CC1)OCCO2 [compound 331]
600 nM | COc1ccc(C(=O)N2CCN(CC(=O)Nc3cc4c(cc3OC)OCO4)CC2)cc1 [compound 368]
20 nM | COCc1nc(C(=O)N2CCN(CC(=O)Nc3cc4c(cc3C(C)=O)OCO4)CC2)cs1 [compound 295]
230 nM | CC(=O)c1cc2c(cc1NC(=O)CN1CCN(C(=O)c3ccc(CO)o3)CC1)OCO2 [compound 287]
261 nM | COCc1nc(C(=O)N2CCN(CC(=O)Nc3cc4c(cc3OC)OCO4)CC2)cs1 [compound 359]
2700 nM | COc1cc2c(cc1NC(=O)CN1CCN(C(=O)c3n[nH]cc3C)CC1)OCO2 [compound 390]
156 nM | COCc1cccc(C(=O)N2CCN(CC(=O)Nc3cc4c(cc3OC)OCO4)CC2)c1 [compound 356]
60 nM | CC(=O)c1cc2c(cc1NC(=O)CN1CCN(C(=O)c3ncn[nH]3)CC1)OCCO2 [compound 328]
49 nM | CCc1oc(C(=O)N2CCN(CC(=O)Nc3cc4c(cc3C(C)=O)OCO4)CC2)cc1COC [compound 291]

The remaining lines, values behind:

SMILES | IC50
CC(=O)c1cc2c(cc1NC(=O)C(C)N1CCN(C(=O)[C@H]3CCCO3)CC1)OCO2 (stereo partly shown) [compound 317] | 200 nM
COc1cc2c(cc1NC(=O)CN1CCN(C(=O)Cc3ccncc3)CC1)OCO2 [compound 378] | 1100 nM
COc1ccc(CC(=O)N2CCN(CC(=O)Nc3cc4c(cc3OC)OCO4)CC2)cc1 [compound 375] | 1000 nM
CC(=O)c1cc2c(cc1NC(=O)C(C)N1CCN(C(=O)[C@@H]3CCCO3)CC1)OCCO2 (stereo partly shown) [compound 411] | 170 nM
COc1cc2c(cc1NC(=O)CN1CCN(C(=O)Cc3cccc(O)c3)CC1)OCO2 [compound 372] | 400 nM
CC(=O)c1cc2c(cc1NC(=O)CN1CCN(C(=O)Cc3ccco3)CC1)OCCO2 [compound 334] | 50 nM
CC(=O)c1cc2c(cc1NC(=O)CN1CCN(C(=O)[C@H]3CCC(=O)O3)CC1)OCCO2 [compound 335] | 50 nM
CC(=O)c1cc2c(cc1NC(=O)CN1CCN(C(=O)Cc3ccc(O)cc3)CC1)OCO2 [compound 61] | 50 nM

Same assay, conditions: Table 4; cells stably expressing hT2R54 and a promiscuous G protein; read-out: hT2R54 IC50

IC50 | SMILES
505 nM | CCOC(=O)C1CN(CC(=O)Nc2cc3c(cc2OC)OCO3)CCO1 (stereo not shown) [compound 444]
190 nM | COc1cc2c(cc1NC(=O)C(C)N1CCN(C(=O)OC(C)(C)C)CC1)OCO2 (stereo not shown) [compound 446]

Continued, compound first:

SMILES | IC50
CCN(CCOC)CC(=O)Nc1cc2c(cc1C(C)=O)OCO2 [compound 131] | 2000 nM
COC1CCN(C(C)(C)C(=O)Nc2cc3c(cc2C(C)=O)OCO3)CC1 [compound 124] | 2140 nM
CC(=O)c1cc2c(cc1NC(=O)CCN1CCOCC1)OCO2 [compound 432] | 1920 nM
CCOC(=O)CCN(C)CC(=O)Nc1cc2c(cc1OC)OCO2 [compound 142] | 230 nM
CC(=O)c1cc2c(cc1NC(=O)CN(C)C1CCCN(C(=O)OC(C)(C)C)C1)OCO2 (stereo not shown) [compound 138] | 150 nM
CC(=O)c1cc2c(cc1NC(=O)CN1CCC(NC(=O)OC(C)(C)C)CC1)OCO2 [compound 430] | 162 nM
CC(=O)c1cc2c(cc1NC(=O)CN1CCC(O)C1)OCO2 (stereo not shown) [compound 424] | 1590 nM
CC(=O)c1cc2c(cc1NC(=O)CN1CC(C)OC(C)C1)OCO2 (stereo not shown) [compound 119] | 246 nM
CC(=O)c1cc2c(cc1NC(=O)CN1CCOCC1)OCO2 [compound 109, N-(6-acetylbenzo[d][1,3]dioxol-5-yl)-2-morpholinoacetamide] | 588 nM

Same assay, conditions: Table 5; cells stably expressing hT2R54 and a promiscuous G protein; read-out: hT2R54 IC50

IC50 | SMILES
1350 nM | CNC(=O)C1CCN(CC(=O)Nc2cc3c(cc2C(C)=O)OCO3)CC1 [compound 161]
406 nM | COc1cc2c(cc1NC(=O)CN(C)CCC(=O)NCc1ccccc1)OCO2 [compound 451]

Same assay, conditions: Table 6; cells stably expressing hT2R54 and a promiscuous G protein; read-out: hT2R54 IC50

IC50 | SMILES
188 nM | CC(=O)c1cc2c(cc1NC(=O)CN1CCC(CNC(=O)CC(C)C)CC1)OCO2 [compound 170]
140 nM | CC(=O)c1cc2c(cc1NC(=O)CN1CCC(NC(=O)CC(C)C)CC1)OCO2 [compound 169]
60 nM | CC(=O)c1cc2c(cc1NC(=O)CN1CCC(NC(=O)c3ccccc3)CC1)OCO2 [compound 171]

Same assay, conditions: Table 8; read-out: hT2R54 IC50

IC50 | SMILES
> 10000 nM | COc1cc2c(cc1NC(=O)CC1CCN(C(=O)c3nc(C)c[nH]3)CC1)OCO2 [compound 499]
4000 nM | COc1cc2c(cc1NC(=O)CC1CCN(C(=O)c3ccc(C)o3)CC1)OCO2 [compound 500]

More lines, now with the values behind:

SMILES | IC50
CC(=O)c1cc2c(cc1NC(=O)CC1CCN(C(=O)CC(C)C)CC1)OCO2 [compound 198, N-(6-acetylbenzo[d][1,3]dioxol-5-yl)-2-(1-(3-methylbutanoyl)piperidin-4-yl)acetamide] | 45 nM
COCc1ccc(C(=O)N2CCCC(CC(=O)Nc3cc4c(cc3C(C)=O)OCO4)C2)o1 (stereo not shown) [compound 228] | 20 nM
CCCOC(=O)N1CCC(CC(=O)Nc2cc3c(cc2C(C)=O)OCO3)CC1 [compound 241] | 72 nM
CCC(=O)N1CCCC(CC(=O)Nc2cc3c(cc2C(C)=O)OCO3)C1 (stereo not shown) [compound 203] | 17 nM
CCC(=O)N1CCC(CC(=O)Nc2cc3c(cc2C(C)=O)OCO3)CC1 [compound 233] | 86 nM
CC(=O)c1cc2c(cc1NC(=O)CC1CCN(C(=O)c3ccc(CO)o3)CC1)OCCO2 [compound 487] | 250 nM
CC(=O)c1cc2c(cc1NC(=O)CC1CCCN(C(=O)c3cccc(O)c3)C1)OCO2 (stereo not shown) [compound 218] | > 1000 nM
CC(=O)c1cc2c(cc1NC(=O)CC1CCCN(C(=O)c3ccc(O)cc3)C1)OCO2 (stereo not shown) [compound 219] | 1460 nM
CC(=O)c1cc2c(cc1NC(=O)CC1CCCN(C(=O)c3ccc(O)c(O)c3)C1)OCO2 (stereo not shown) [compound 456] | 1300 nM
CC(=O)c1cc2c(cc1NC(=O)CC1CCCN(C(=O)C(C)C)C1)OCO2 (stereo not shown) [compound 205] | 12 nM
CC(=O)c1cc2c(cc1NC(=O)CC1CCCN(C(=O)C3CCCO3)C1)OCO2 (stereo not shown) [compound 209] | 56 nM
CC(=O)c1cc2c(cc1NC(=O)CC1CCCN(C(=O)c3cc(O)ccc3O)C1)OCO2 (stereo not shown) [compound 458] | 160 nM
CC(=O)c1cc2c(cc1NC(=O)CC1CCN(C(=O)C(C)(C)C)CC1)OCO2 [compound 237] | 190 nM
CCS(=O)(=O)N1CCCC(CC(=O)Nc2cc3c(cc2OC)OCO3)C1 (stereo not shown) [compound 515] | 500 nM
CC(=O)c1cc2c(cc1NC(=O)CC1CCN(C(=O)c3c[nH]c(C)n3)CC1)OCO2 [compound 463] | 400 nM
CCCOC(=O)N1CCCC(CC(=O)Nc2cc3c(cc2C(C)=O)OCO3)C1 (stereo not shown) [compound 214] | 320 nM
CC(=O)c1cc2c(cc1NC(=O)CC1CCN(C(C)=O)CC1)OCO2 [compound 232] | > 1000 nM

Same assay, conditions: Table 9; read-out: hT2R54 IC50

IC50 | SMILES
1810 nM | COc1cccc(CC(=O)Nc2cc3c(cc2C(C)=O)OCO3)c1 [compound 281]
152 nM | CC(=O)c1cc2c(cc1NC(=O)CC1CCCCO1)OCO2 (stereo not shown) [compound 271]
